Measurements: US20230392140A1, “REVERSE TRANSCRIPTION OF POLYNUCLEOTIDES COMPRISING UNNATURAL NUCLEOTIDES” (Synthorx, Inc., priority 2020, published 2023)
Where two headings read alike, the source gives them in different places.

Tests used:
E. coli SSO [1] = test: T-RT retention of sfGFP mRNA extracted from SSO in vivo translation experiments; assay type: cell-based; set-up: unit of the concentration uncertain; settings: for T-RT retention: mRNA sfGFP(GXT), n = 3
Protocol: (§1) Reverse transcription. The reverse transcription reactions were conducted according to the manufacturer's instructions of each reverse transcriptase with the following modifications. In all reverse transcription reactions, 1 μg mRNA or 20 ng tRNA, 0.5 mM dNTP and 0.2 mM dNaMTP or dTPT3TP per 20 μL reaction were used unless stated otherwise. For SuperScript III (18080044, ThermoFisher), reactions were incubated at 55° C. for 45 min, inactivated at 70° C. for 15 min, followed by RNase H (M0297S, New England Biolabs, (NEB)) and RNase A (R1253, ThermoFisher) digestion. For SuperScript IV (18090010, ThermoFisher), reactions were incubated at 55° C. for 20 min, inactivated at 80° C. for 10 min, followed by RNase H, RNase A, and Proteinase K (P8107S, New England Biolabs, (NEB)) digestion. For AMV reverse transcriptase (M0277S, New England Biolabs, (NEB)), reactions were incubated at 42° C. for 60 min, inactivated at 80° C. for 5 min, followed by RNase H and RNase A digestion. After digestion, 10 μL of each reaction mixture was denatured with RNA loading dye (B0363S, New England Biolabs, (NEB)) and subjected to 10% denaturing polyacrylamide gel electrophoresis with 8 M urea (CAS 57-13-6, Sigma Aldrich) for cDNA detection. The other 10 μL of the reaction mixture was purified using a commercial RNA purification kit (D7011, Zymo Research; Irvine, CA) and the product cDNA was quantified using Qubit.
(§2) SSO in vivo translation. A 2 mL overnight culture of YZ3+pGEX-MbPylRS TetR cells in 2×YT (Y2377, Sigma Aldrich) supplemented with 50 mM potassium phosphate (CAS 7778-77-0, Sigma Aldrich), 5 μg/mL chloramphenicol (CAS 56-75-7, Sigma Aldrich) and 100 μg/mL carbenicillin (C1613, Sigma Aldrich) (herein afterward referred to in this section as “media”) was diluted to an OD600 of 0.03 in the same media, and grown to an OD600 of 0.3 to 0.4. The culture was rapidly cooled in an ice water bath for 5 min with shaking, and then pelleted at 3,200×g for 10 min. Cells were next washed twice with one culture volume of pre-chilled autoclaved Milli-Q H2O. Cells were then resuspended in additional chilled H2O, to an OD600 of 50-60. For each sample tested, 50 μL of the resulting electrocompetent cells were combined with 0.5 ng of Golden Gate assembled plasmid containing the UBP embedded within the sfGFP and tRNA^Pyl genes and then transferred to a pre-chilled electroporation cuvette (0.2 cm gap). Cells were electroporated (Gene Pulser II; Bio-Rad) according to the manufacturer's instructions for bacteria ([…], 2.5 μF, and 200Ω resistor), then immediately diluted with 950 μL of pre-warmed media. 10 μL of this dilution was then diluted with pre-warmed media to a final volume of 50 μL, supplemented with […] and 10 μM dTPT3TP. The transformation was allowed to recover at 37° C. for 1 h. The recovery culture was plated on solid media supplemented with 50 μg/mL zeocin (R25001, ThermoFisher), 150 μM dNaMTP, 10 μM dTPT3TP, and 2% w/v agar, then allowed to grow at 37° C. overnight.
(§3) Single colonies were isolated and used to inoculate 300 μL liquid media supplemented with 50 μg/mL zeocin (herein afterward referred to in this section as “growth media”) and provided 150 μM dNaMTP, and 10 μM dTPT3TP, then monitored for cell growth via OD600 using an Envision 2103 Multilabel Plate Reader (Perkin Elmer) with a 590/20 nm filter. Cells were collected at an OD600 of ˜0.7, and then an aliquot (100 μL) was subjected to miniprep. Isolated plasmids were subjected to biotin shift assay to determine UBP retention. […] At an OD600 of cultures were supplemented with 250 μM NaMTP and 30 μM TPT3TP unless stated otherwise, as well as 10 mM of the ncAA N6-(2-azidoethoxy)-carbonyl-L-lysine (AzK). The culture was then grown for and additional 20 min before adding IPTG (CAS 367-93-1, Sigma Aldrich) to a concentration of 1 mM and grown for 1 h to induce the transcription of the T7 RNA polymerase, the tRNA^Pyl, and the PylRS. […]

E. coli SSO [2] = test: T-RT retention of M. mazei tRNA extracted from SSO in vivo translation experiments; assay type: cell-based; set-up: unit of the concentration uncertain; settings: for T-RT retention: tRNA(AYC), n = 3
Protocol: as §1, §2, §3

[3] = system: SuperScript III reverse transcriptase; settings: 10 ng RNA per reaction, replicate 1, unnatural dNTP supplied, 55 C

## COc1cc2ccccc2cc1[C@@H]1O[C@H](COP(=O)(O)OP(=O)(O)OP(=O)(O)O)[C@@H](O)[C@H]1O [NaMTP]
E. coli SSO [1]; TPT3TP held constant at 250 µM, until NaMTP dropped to less than 50 μM
  retention of NaM in the mRNA as NaMTP concentration was decreased: remained high
E. coli SSO [1]; NaMTP concentration 12.5 µM
  T-RT retention: 0.70
E. coli SSO [1]; NaMTP concentration 25 µM
  T-RT retention: 0.81
E. coli SSO [1]; NaMTP concentration 50 µM
  T-RT retention: 0.88
E. coli SSO [1]; NaMTP concentration 125 µM
  T-RT retention: 0.94
E. coli SSO [1]; NaMTP concentration 250 µM
  T-RT retention: 0.93

## O=P(O)(O)OP(=O)(O)OP(=O)(O)OC[C@H]1O[C@@H](n2ccc3ccsc3c2=S)[C@H](O)[C@@H]1O [TPT3TP]
E. coli SSO [2]; NaMTP held constant at 250 (unit uncertain), even at the lowest concentration examined (10 μM)
  retention of TPT3 in the tRNA as TPT3TP concentration was varied: remained high
E. coli SSO [2]; TPT3TP concentration 12.5 (unit uncertain)
  T-RT retention: 0.95
E. coli SSO [2]; TPT3TP concentration 25 (unit uncertain)
  T-RT retention: 0.97
E. coli SSO [2]; TPT3TP concentration 50 (unit uncertain)
  T-RT retention: 0.98
E. coli SSO [2]; TPT3TP concentration 125 (unit uncertain)
  T-RT retention: 0.95
E. coli SSO [2]; TPT3TP concentration 250 (unit uncertain)
  T-RT retention: 0.94

## M. mazei tRNA with NaM anticodon
[3]; NaM ribonucleotide at second nucleotide of anticodon, 0.8789 at 500 ng
  activity (full-length product ratio): 0.973

## M. mazei tRNA with TPT3 anticodon
[3]; TPT3 ribonucleotide at second nucleotide of anticodon, 0.4423 at 500 ng
  activity (full-length product ratio): 0.917
